Source: US8609725B2, “Method of using beta-hydroxy-beta-methylbutyrate for reducing tumor growth rate” (Abbott Laboratories, priority 2004, dated 2013)

What was measured:
[1] = molecular target: T1, PKCα (Mus musculus, UniProt P20444); experiment: PIF-stimulated translocation of PKCα from cytoplasm to plasma membrane in murine myotubes; format: cell-based
T1 construct: PIF stimulates translocation of PKCα from the cytoplasm to the plasma membrane; endogenous in cells; host or cells: murine myotubes (C2C12)
Procedure: (§1) For Western blot analysis, cytosolic protein (2 to 5 μg) obtained for the above assay were resolved on 10% SDS-PAGE and transferred to 0.45 μm nitrocellulose membrane, which had been blocked with 5% Marvel in PBS, at 4° C. overnight. The primary antibodies were used at a dilution of 1:100 (anti-actin and PKCα); 1:500 (anti-ERK1 and 2); 1:1000 (anti-20S proteasome β-subunit and I-κBα); 1:1500 (anti-20S proteasome α-subunit) or 1:5000 (anti-p42), while the secondary antibodies were used at a dilution of 1:2000. Incubation was carried out for 2 h at room temperature and development was by ECL. Loading was quantitated by actin concentration.
(§2) The in vitro study described in Example III above also evaluated the effect of HMB on molecules that are key mediators in the pathway of inflammation. This experiment was conducted as described in Example III.

[2] = system: 20S proteasome α-subunits; experiment: Western blotting of 20S proteasome α-subunits in gastrocnemius muscle of MAC16 mice; format: in vivo, NMRI mice
[3] = system: C2C12 myotubes; experiment: PIF-induced total protein degradation in C2C12 myotubes; format: cell-based, murine
Procedure: C2C12 myotubes were routinely passaged in DMEM supplemented with 10% FCS, glutamine and 1% penicillin-streptomycin under an atmosphere of 10% CO2 in air at 37 °C. Myotubes were formed by allowing confluent cultures to differentiate in DMEM containing 2% HS, with medium changes every 2 days.
PIF was purified from solid MAC16 tumors (Todorov, P. et al. Characterization of a cancer cachectic factor. Nature, 379: 739-742, 1996.) excised from mice with a weight loss of 20 to 25%. Tumors were homogenised in 10 mM Tris-HCl, pH 8.0, containing 0.5 mM phenylmethylsulfonyl fluoride, 0.5 mM EGTA and 1 mM dithiothreitol at a concentration of 5 ml/g tumor. […]
Myotubes in six-well multidishes were labeled with L-[2, 6^−3H] phenylalanine (0.67 mCi/mmole) for 24 h in 2 ml DMEM containing 2% HS. They were then washed three times in PBS followed by a 2 h incubation at 37° C. in DMEM without phenol red until no more radioactivity appeared in the supernatant. These myotubes were then further incubated for 24 h in the presence of PIF, with and without EPA or HMB, in fresh DMEM without phenol red, to prevent quenching of counts, and in the presence of 2 mM cold phenylalanine to prevent reincorporation of radioactivity. The amount of radioactivity released into the medium was expressed as a percentage of control cultures not exposed to PIF to determine total protein degradation.

[4] = system: p42, ATPase subunit of the 19S regulator; experiment: Western blotting of p42 in gastrocnemius muscle of MAC16 mice; format: in vivo, NMRI mice
[5] = system: gastrocnemius muscle of mice bearing the MAC16 tumor; experiment: Protein synthesis and degradation in gastrocnemius muscle of MAC16 mice; format: in vivo
Procedure: Protein synthesis was measured by the incorporation of L-[4-3H]phenylalanine during a 2-hour period in which isolated gastrocnemius muscles were incubated at 37° C. in RPMI 1640 without phenol red and saturated with O2/CO2 (19:1). After incubation muscles were rinsed in nonradioactive medium, blotted dry, and homogenized in 4 mL 2% perchloric acid. The rate of protein synthesis was calculated by dividing the protein-bound radioactivity by the acid-soluble (unbound) material. For protein degradation assays animals from the same group as used to measure protein synthesis were given i.p. 0.4 mmol/L L-[4-3H]phenylalanine in PBS (100 μl) 24 hours prior to the assay. Isolated gastrocnemius muscles were extensively washed with PBS and RPMI 1640 before measuring the release of radioactivity into RPMI 1640 over a 2-hour period. The protein-bound activity was determined by homogenizing the muscles in 2% perchloric acid and determining the non-acid-soluble radioactivity (radioactivity in the precipitate). The rate of protein degradation was calculated by dividing the amount of [^3H]phenylalanine radioactivity released into the incubation medium during the 2-hour incubation period by the specific activity of protein-bound [^3H] phenylalanine.

[6] = system: ubiquitin-conjugating enzyme, E214k; experiment: Western blotting of E214k in gastrocnemius muscle of MAC16 mice; format: in vivo, NMRI mice; settings: HMB 0.25 g/kg, EPA 0.6 g/kg or combination, 3 days
Procedure: For Western blotting samples of soleus muscle cytosolic protein (2 to 5 μg), obtained from the above assay, were resolved on 10% SDS-PAGE and transferred to 0.45 μm nitrocellulose membrane (HybondTM, Amersham Life Science Products, Bucks, United Kingdom), which had been blocked with 5% Marvel in PBS. The primary antibodies for MSS1 and p42 were used at a dilution of 1:5000, for 20S proteasome α-subunits at 1:1500 and for β-subunits at 1:1000, while the antibody for […] was used at a dilution of 1:500. The secondary antibodies were used at a dilution of 1:2000. Mouse monoclonal antibodies to 20S proteasome subunits a 1, 2, 3, 5, 6 and 7 (clone MCP 231), 20S proteasome subunit β3 (HC10), 19S regulator ATPase subunit […]1; clone MSS1-104) and 19S regulator ATPase subunit Rpt 4 ([…], p42; clone p42-23) were purchased from Affiniti Research Products, Exeter, United Kingdom. Rabbit polyclonal antisera to ubiquitin-conjugating enzyme E2 (anti-UBC2 antibody) was a gift from Dr. Simon Wing, McGill University, Montreal, Quebec, Canada. Peroxidase-conjugated goat anti-rabbit and rabbit anti-mouse secondary antibodies were from Dako Ltd., Cambridge, United Kingdom. Incubation was carried out for 2 h at room temperature, and developed by chemiluminescence (ECL; Amersham).

[7] = system: 20S proteasome β-subunits; experiment: Western blotting of 20S proteasome β-subunits in gastrocnemius muscle of MAC16 mice; format: in vivo, NMRI mice
[8] = system: p42/44 MAPK (ERK1, ERK2); experiment: PIF-induced phosphorylation of ERK 1/2 (p42/44 MAPK) in murine myotubes; format: cell-based
Procedure: as §1, §2

[9] = HMB 0.25 g/kg, EPA 0.6 g/kg or combination, 3 days
[10] = HMB 0.25 and 2.5 g/kg daily p.o., 3 days, vs PBS control

CC(C)(O)CC(=O)O [HMB, beta-hydroxy-beta-methylbutyric acid]
attenuation of PIF-stimulated translocation of PKCα ([1]; 25 μM HMB): less effective
attenuation of PIF-stimulated translocation of PKCα ([1]; 50 μM): effectively attenuated
expression of 20S proteasome α-subunits [2, 9]: attenuated
reduction of protein expression of 20S α-subunits ([2]; summary of Examples I-IV): at least 50%
attenuation of PIF induced protein degradation ([3]; 25 μM HMB, at low, but not at high concentrations of PIF): some attenuation
attenuation of PIF induced protein degradation ([3]; 50 μM, 24 h after addition of PIF): equally effective
expression of p42 [4, 9]: equally effective
reduction of protein expression of p42 ([4]; summary of Examples I-IV): at least 50%
protein degradation in gastrocnemius muscle [5, 10]: attenuated
protein synthesis in gastrocnemius muscle [5, 10]: significantly increased
increase in the ratio of protein synthesis to protein degradation in muscle ([5]; HMB 0.25 g/kg): 14 fold
increase in the ratio of protein synthesis to protein degradation in muscle ([5]; HMB 2.5 g/kg): 32 fold
expression of E214k [6]: reduced
expression of 20S proteasome β-subunits [7, 9]: attenuated
reduction of protein expression of 20S β-subunits ([7]; summary of Examples I-IV): at least 50%
attenuation of PIF-induced phosphorylation of p42/44 ([8]; 25 μM HMB): not HMB at 25 μM
attenuation of PIF-induced phosphorylation of p42/44 ([8]; 50 μM): completely attenuated
